Like-named read-outs stand apart in the source and are kept apart here.
How the values were obtained:
[1] = tested on: macrophage-tropic (NL-43); assay: P24 quantification (P24 EIA) in infected PBMCs, NL-43; type: cell-based, HIV-1; details: PBMC; for concentrations of the viral P24 antigen, NL43(+): (+) original concentration of compound maintained after washing; for concentrations of the viral P24 antigen, NL43(-): (-) compound removed after washing
Experimental: (§1) PBMCs were treated with various concentrations of CAPE, MC and PEDMC provided in Example 2 and simultaneously infected with […] and macrophage and T cells dual tropic (89.6) HIV-1 isolates. The next day, the added compounds were removed by washing methods or maintained at the same concentration. Samples were divided into two groups and the upernatants of the culture medium were collected at the 3 and 7 days after infection, respectively. The use of P24 EIA Reagent Kit of Abbott Laboratory compares the concentrations of viral P24 antigen with or without the compounds tested.

T cells-tropic (JRCSF) = assay: P24 quantification (P24 EIA) in infected PBMCs, JRCSF; type: cell-based, HIV-1; details: PBMC; for concentrations of the viral P24 antigen, JRCSF(+): (+) original concentration of compound maintained after washing; for concentrations of the viral P24 antigen, JRCSF(-): (-) compound removed after washing
Experimental: as §1

[2] = tested on: macrophage and T cells dual tropic (89.6); assay: P24 quantification (P24 EIA) in infected PBMCs, 89.6; type: cell-based, HIV-1; details: PBMC; for concentrations of the viral P24 antigen, 89.6(+): (+) original concentration of compound maintained after washing; for concentrations of the viral P24 antigen, 89.6(-): (-) compound removed after washing
Experimental: as §1

[3] = tested on: various HIV isolates (NL-43, JRCSF or 89.6); assay: P24 quantification, summary statements over all isolates; type: cell-based, HIV-1
Experimental: as §1

[4] = tested on: Peripheral Blood Mononuclear Cells (PBMC); details: for The numbers of dead cells in 400 cells' count / % viability: 48 hours; for The numbers of dead cells in 400 cells' count: control 9 dead cells; for % viability: viable cells versus control (391);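 as to all read-outs here: trypan blue dye exclusion, cells stained and counted from quadruplicate dishes, DMSO vehicle kept under 0.5%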
Experimental: Viability of the cells was assayed by the trypan blue dye exclusion method. […] The concentration of DMSO was adjusted to be less than 0.5%. Cells from quadruplicated dishes were washed once with Hank's Balanced Salt Solution (HBSS). According to the process, the floating dead cells will be separated from the live monolayer cells. Then the cells were stained with trypan blue and counted. The total number of viable cells in the control group was considered as 100% viability and the agent-treated cells were compared with the control group for the determination of % viability. The % viability of agent-treated cells was calculated from the total number of viable cells in the control group and in the agent-treated group.

COC(=O)/C=C/c1ccc(O)c(O)c1 [MC, methyl caffeate]
concentrations of the viral P24 antigen, NL43(+) ([1]; 0.1 µM): 1000 unit
concentrations of the viral P24 antigen, NL43(-) ([1]; 0.1 µM): 1000 unit
concentrations of the viral P24 antigen, NL43(+) ([1]; 0.5 µM): 1000 unit
concentrations of the viral P24 antigen, NL43(-) ([1]; 0.5 µM): 1000 unit
concentrations of the viral P24 antigen, NL43(+) ([1]; 1 µM): 1000 unit
concentrations of the viral P24 antigen, NL43(-) ([1]; 1 µM): 1000 unit
concentrations of the viral P24 antigen, NL43(+) ([1]; 5 µM): 1000 unit
concentrations of the viral P24 antigen, NL43(-) ([1]; 5 µM): 1000 unit
concentrations of the viral P24 antigen, NL43(+) ([1]; 10 µM): 1000 unit
concentrations of the viral P24 antigen, NL43(-) ([1]; 10 µM): 1000 unit
concentrations of the viral P24 antigen, NL43(+) ([1]; 25 µM): 220.63 unit
concentrations of the viral P24 antigen, NL43(-) ([1]; 25 µM): 1000 unit
concentrations of the viral P24 antigen, NL43(+) ([1]; 50 µM): 273.07 unit
concentrations of the viral P24 antigen, NL43(-) ([1]; 50 µM): 922.63 unit
concentrations of the viral P24 antigen, NL43(+) ([1]; 100 µM): 0 unit
concentrations of the viral P24 antigen, NL43(-) ([1]; 100 µM): 687.24 unit
concentrations of the viral P24 antigen, NL43(+) ([1]; 200 µM): 0 unit
concentrations of the viral P24 antigen, NL43(-) ([1]; 200 µM): 518.45 unit
concentrations of the viral P24 antigen, NL43(+) ([1]; 400 µM): 0 unit
concentrations of the viral P24 antigen, NL43(-) ([1]; 400 µM): 2.53 unit
concentrations of the viral P24 antigen, JRCSF(+) (T cells-tropic (JRCSF); 0.1 µM): 1000 unit
concentrations of the viral P24 antigen, JRCSF(-) (T cells-tropic (JRCSF); 0.1 µM): 1000 unit
concentrations of the viral P24 antigen, JRCSF(+) (T cells-tropic (JRCSF); 0.5 µM): 1000 unit
concentrations of the viral P24 antigen, JRCSF(-) (T cells-tropic (JRCSF); 0.5 µM): 1000 unit
concentrations of the viral P24 antigen, JRCSF(+) (T cells-tropic (JRCSF); 1 µM): 1000 unit
concentrations of the viral P24 antigen, JRCSF(-) (T cells-tropic (JRCSF); 1 µM): 1000 unit
concentrations of the viral P24 antigen, JRCSF(+) (T cells-tropic (JRCSF); 5 µM): 58.13 unit
concentrations of the viral P24 antigen, JRCSF(-) (T cells-tropic (JRCSF); 5 µM): 1000 unit
concentrations of the viral P24 antigen, JRCSF(+) (T cells-tropic (JRCSF); 10 µM): 2.53 unit
concentrations of the viral P24 antigen, JRCSF(-) (T cells-tropic (JRCSF); 10 µM): 828.46 unit
concentrations of the viral P24 antigen, JRCSF(+) (T cells-tropic (JRCSF); 25 µM): 2.33 unit
concentrations of the viral P24 antigen, JRCSF(-) (T cells-tropic (JRCSF); 25 µM): 786.67 unit
concentrations of the viral P24 antigen, JRCSF(+) (T cells-tropic (JRCSF); 50 µM): 0 unit
concentrations of the viral P24 antigen, JRCSF(-) (T cells-tropic (JRCSF); 50 µM): 42.64 unit
concentrations of the viral P24 antigen, JRCSF(+) (T cells-tropic (JRCSF); 100 µM): 0 unit
concentrations of the viral P24 antigen, JRCSF(-) (T cells-tropic (JRCSF); 100 µM): 0 unit
concentrations of the viral P24 antigen, JRCSF(+) (T cells-tropic (JRCSF); 200 µM): 0 unit
concentrations of the viral P24 antigen, JRCSF(-) (T cells-tropic (JRCSF); 200 µM): 0 unit
concentrations of the viral P24 antigen, JRCSF(+) (T cells-tropic (JRCSF); 400 µM): 0 unit
concentrations of the viral P24 antigen, JRCSF(-) (T cells-tropic (JRCSF); 400 µM): 0 unit
concentrations of the viral P24 antigen, 89.6(+) ([2]; 0.1 µM): 1000 unit
concentrations of the viral P24 antigen, 89.6(-) ([2]; 0.1 µM): 1000 unit
concentrations of the viral P24 antigen, 89.6(+) ([2]; 0.5 µM): 954.88 unit
concentrations of the viral P24 antigen, 89.6(-) ([2]; 0.5 µM): 1000 unit
concentrations of the viral P24 antigen, 89.6(+) ([2]; 1 µM): 149.67 unit
concentrations of the viral P24 antigen, 89.6(-) ([2]; 1 µM): 966.67 unit
concentrations of the viral P24 antigen, 89.6(+) ([2]; 5 µM): 66.78 unit
concentrations of the viral P24 antigen, 89.6(-) ([2]; 5 µM): 1000 unit
concentrations of the viral P24 antigen, 89.6(+) ([2]; 10 µM): 14.36 unit
concentrations of the viral P24 antigen, 89.6(-) ([2]; 10 µM): 624.39 unit
concentrations of the viral P24 antigen, 89.6(+) ([2]; 25 µM): 5.2 unit
concentrations of the viral P24 antigen, 89.6(-) ([2]; 25 µM): 504.42 unit
concentrations of the viral P24 antigen, 89.6(+) ([2]; 50 µM): 18.4 unit
concentrations of the viral P24 antigen, 89.6(-) ([2]; 50 µM): 286.46 unit
concentrations of the viral P24 antigen, 89.6(+) ([2]; 100 µM): 8.91 unit
concentrations of the viral P24 antigen, 89.6(-) ([2]; 100 µM): 278.43 unit
concentrations of the viral P24 antigen, 89.6(+) ([2]; 200 µM): 0 unit
concentrations of the viral P24 antigen, 89.6(-) ([2]; 200 µM): 124.97 unit
concentrations of the viral P24 antigen, 89.6(+) ([2]; 400 µM): 0 unit
concentrations of the viral P24 antigen, 89.6(-) ([2]; 400 µM): 0 unit
viral replications (result in words) ([3]; Figures 3-5, PBMC infected with NL-43, JRCSF or 89.6): significantly inhibited viral replications
inhibit viral replication ([3]; at the concentration of 100 µM or less, various HIV isolates): 100%
The numbers of dead cells in 400 cells' count ([4]; 0.1 µM): 9
% viability ([4]; 0.1 µM): 391/391 (100%)
The numbers of dead cells in 400 cells' count ([4]; 0.5 µM): 7
% viability ([4]; 0.5 µM): 393/391 (100.5%)
The numbers of dead cells in 400 cells' count ([4]; 1 µM): 12
% viability ([4]; 1 µM): 388/391 (99.2%)
The numbers of dead cells in 400 cells' count ([4]; 5 µM): 9
% viability ([4]; 5 µM): 391/391 (100%)
The numbers of dead cells in 400 cells' count ([4]; 10 µM): 7
% viability ([4]; 10 µM): 393/391 (100.5%)
The numbers of dead cells in 400 cells' count ([4]; 25 µM): 11
% viability ([4]; 25 µM): 389/391 (99.5%)
The numbers of dead cells in 400 cells' count ([4]; 50 µM): 11
% viability ([4]; 50 µM): 389/391 (99.5%)
The numbers of dead cells in 400 cells' count ([4]; 100 µM): 7
% viability ([4]; 100 µM): 393/391 (100.5%)
The numbers of dead cells in 400 cells' count ([4]; 200 µM): 8
% viability ([4]; 200 µM): 392/391 (100.3%)
The numbers of dead cells in 400 cells' count ([4]; 400 µM): 7
% viability ([4]; 400 µM): 393/391 (100.5%)
viabilities of PBMC under high-dose versus low-dose treatments (result in words) ([4]; high dose up to 400 µM compared with 0.1-10 µM): no substantial differences

Source: patent EP1166782A2, “Anti-retroviral pharmaceutical compositions” (Yang, Chi-Chiang, priority 2000, dated 2002)
